Test results: patent US7452688B2, “Transformed cell with enhanced sensitivity to antifungal compound and use thereof” (Sumitomo Chemical Company, Limited, priority 2002, dated 2008)

Tests used:
Assay type in all cases: cell-based, Saccharomyces cerevisiae
AH22 strain [1] = test: Antifungal compound sensitivity test, control yeast AH22 strain (Example 13); conditions: 30° C. 24.5 hours, relative value in percentage
Experimental: (§1) The transformed budding yeast AH22-FoOS1 prepared in Example 12 was cultured while shaking at 30° C. for 18 hours in a Glu-Leu medium. As a control, the AH22 strain was similarly cultured while shaking at 30° C. for 18 hours in a Glu medium. The absorbance at 600 nm of each grown transformed budding yeast in a cell suspension was measured, and cell suspension diluted with sterilized distilled water to the absorbance of 0.1 was prepared. Further, a cell suspension in which the aforementioned cell suspension of the transformed budding yeast AH22-FoOS1 was diluted 50-fold with a Glu-Leu medium, and a cell suspension in which the aforementioned cell suspension of the AH22 strain was diluted 50-fold with a Glu medium were prepared.
(§2) A solution in which each of Compounds (1) to (3) was dissolved in dimethylsulfoxide (DMSO) to the concentration of 600 ppm, a solution in which each of Compounds (4) and (5) was dissolved in dimethylsulfoxide (DMSO) to the concentration of 2000 ppm, and a solution in which Compounds (6) and (7) was dissolved in dimethylsulfoxide (DMSO) to the concentration of 20 ppm were prepared, and two microplates were prepared in which each 1.0 μL per well of the Compound solution and DMSO as a control were dispensed. In one microplate among them, each. 100 μL of cell suspensions of the transformed budding yeast AH22-FoOS1 which had been prepared by dilution as described above was dispensed, and cultured by allowing to stand at 30° C. for 26.5 hours. In another microplate, each 100 μL of cell suspensions of the control yeast AH22 strain which had been prepared by dilution as described above was dispensed, and cultured by allowing to stand at 30° C. for 24.5 hours. After culturing, the absorbance at 600 nm of each well was measured with a microplate reader.
(§3) A degree of growth of the transformed budding yeast is expressed as a relative value in percentage, letting the absorbance at 600 nm at the concentration of the Compound of 0 ppm to be 100. It was confirmed that an inhibiting degree of growth of the transformed budding yeast TM182-FoOS1 by each test substance was grater than an inhibiting degree of growth of the transformed budding yeast AH22-FoOS1 by each test substance, and the transformed budding yeast TM182-FoOS1 was a transformed cell with the enhanced sensitivity to an antifungal compound as compared with the transformed budding yeast AH22-FoOS1.

[2] = tested on: transformed budding yeast AH22-FoOS1; test: Antifungal compound sensitivity test, transformed budding yeast AH22-FoOS1 (Example 13); conditions: 30° C. 26.5 hours, relative value in percentage
Experimental: as §1, §2, §3

AH22 strain [3] = test: Antifungal compound sensitivity test, control yeast AH22 strain (Example 16); conditions: 30° C. 24.5 hours, relative value in percentage
Experimental: as §1, with “AH22-StOS1” for “AH22-FoOS1”, “15” for “12”
as §2, with “of 6” for “of 600”, “them, each” for “them, each.”, “yeast AH22-StOS1” for “yeast AH22-FoOS1”, “for 28” for “for 26.5”
as §3, with “TM182-StOS1” for “TM182-FoOS1”, “AH22-StOS1” for “AH22-FoOS1”, “AH22-StOS1.” for “AH22-FoOS1.”

## CC(C)NC(=O)N1CC(=O)N(c2cc(Cl)cc(Cl)c2)C1=O [Compound (2), Iprodione]
AH22 strain [1]; final concentration 6 ppm
  Degree of growth of budding yeast AH22 Glu medium: 91%
[2]; final concentration 6 ppm
  Degree of growth of budding yeast AH22-FoOS1 Glu-Leu medium: 91%
AH22 strain [3]; final concentration 0.6 ppm
  Degree of growth of budding yeast AH22 Glu medium: 94%

## N#Cc1c[nH]cc1-c1cccc2c1OC(F)(F)O2 [Compound (6), Fludioxonil]
AH22 strain [1]; final concentration 0.2 ppm
  Degree of growth of budding yeast AH22 Glu medium: 92%
[2]; final concentration 0.2 ppm
  Degree of growth of budding yeast AH22-FoOS1 Glu-Leu medium: 69%
AH22 strain [3]; final concentration 0.2 ppm
  Degree of growth of budding yeast AH22 Glu medium: 92%

## COP(=S)(OC)Oc1c(Cl)cc(C)cc1Cl [Compound (5), Tolclofos-methyl]
AH22 strain [1]; final concentration 20 ppm
  Degree of growth of budding yeast AH22 Glu medium: 80%
[2]; final concentration 20 ppm
  Degree of growth of budding yeast AH22-FoOS1 Glu-Leu medium: 71%
AH22 strain [3]; final concentration 20 ppm
  Degree of growth of budding yeast AH22 Glu medium: 80%

## O=[N+]([O-])c1c(Cl)c(Cl)c(Cl)c(Cl)c1Cl [Compound (4), Quintozene]
AH22 strain [1]; final concentration 20 ppm
  Degree of growth of budding yeast AH22 Glu medium: 96%
[2]; final concentration 20 ppm
  Degree of growth of budding yeast AH22-FoOS1 Glu-Leu medium: 90%
AH22 strain [3]; final concentration 20 ppm
  Degree of growth of budding yeast AH22 Glu medium: 96%

## C=CC1(C)OC(=O)N(c2cc(Cl)cc(Cl)c2)C1=O (stereo not drawn) [Compound (3), Vinclozolin]
AH22 strain [1]; final concentration 6 ppm
  Degree of growth of budding yeast AH22 Glu medium: 87%
[2]; final concentration 6 ppm
  Degree of growth of budding yeast AH22-FoOS1 Glu-Leu medium: 86%
AH22 strain [3]; final concentration 0.6 ppm
  Degree of growth of budding yeast AH22 Glu medium: 96%

## CC12CC1(C)C(=O)N(c1cc(Cl)cc(Cl)c1)C2=O (stereo not drawn) [Compound (1), Procymidone]
AH22 strain [1]; final concentration 6 ppm
  Degree of growth of budding yeast AH22 Glu medium: 88%
[2]; final concentration 6 ppm
  Degree of growth of budding yeast AH22-FoOS1 Glu-Leu medium: 81%
AH22 strain [3]; final concentration 0.6 ppm
  Degree of growth of budding yeast AH22 Glu medium: 99%

## N#Cc1c[nH]cc1-c1cccc(Cl)c1Cl [Compound (7), Fenpiclonil]
AH22 strain [1]; final concentration 0.2 ppm
  Degree of growth of budding yeast AH22 Glu medium: 91%
[2]; final concentration 0.2 ppm
  Degree of growth of budding yeast AH22-FoOS1 Glu-Leu medium: 88%
AH22 strain [3]; final concentration 0.2 ppm
  Degree of growth of budding yeast AH22 Glu medium: 91%
